Assay results reported in patent publication US20060264411A1, “Control of biofilm formation” (priority 2005, published 2006).

What was measured:
[1] = tested on: P. aeruginosa strain PAO1; assay: Rotating disk reactor (RDR) biofilm test with and without tobramycin; assay type: cell-based, Pseudomonas aeruginosa; settings: for Test Compound, log10 CFU: no tobramycin; for Tobramycin and Test Compound, log10 CFU: then tobramycin 100 μg/ml 2 h
Experimental: Biofilm formation of P. aeruginosa was evaluated using a standardized biofilm method with a rotating disk reactor (RDR). This method provides a model resembling the formation of biofilms in cystic fibrosis patients. The rotating disk reactor consists of a one-liter glass beaker fitted with a drain spout. The bottom of the vessel contains a magnetically driven rotor with six 1.27 cm diameter coupons constructed from polystyrene. The rotor consists of a star-head magnetic stir bar upon which a disk was affixed to hold the coupons. The vessel with the stir bar was placed on a stir plate and rotated to provide fluid shear. A nutrient solution (AB Trace Medium with 0.3 mM glucose, see Table 1 below for composition) was added through a stopper in the top of the reactor at a flow rate of 5 ml/min. The reactor volume was approximately 180 ml and varied slightly between reactors depending on the placement of the drain spout and the rotational speed of the rotor. At a volume of 180 ml, the residence time of the reactors was 36 minutes. The reactors were operated at room temperature (c.a. 26° C.).
For each test, two RDRs were operated in parallel with one receiving test compound and the other serving as an untreated control. The RDRs were sterilized by autoclave, then filled with sterile medium and inoculated with P. aeruginosa strain PAO1. The reactors were then incubated at room temperature in batch mode (no medium flow) for a period of 24 hours, after which the flow was initiated for a further 24 hour incubation. Test compounds were dissolved in 10 ml ethanol to achieve a concentration of 1.8 mg/ml. After the 48 hours of biofilm development described above, the 10 ml of ethanol containing the test compounds were added to the reactor to achieve a final concentration of approximately 50, 100, or 200 μg/ml. Control reactors received 10 ml of ethanol. The reactors were then incubated for an additional 24 hours in batch (no flow) mode. After this incubation period, the six coupons were removed from each reactor and placed in 12-well polystyrene tissue culture plates with wells containing either 2 ml of a 100 μg/ml tobramycin solution or 2 ml of phosphate-buffered saline (PBS). These plates were incubated at room temperature for two hours. The coupons were then rinsed by three transfers to plates containing 2 ml of fresh PBS. For each two RDR reactors run in parallel, four sets of three coupons were obtained: one set with no test compound treatment and no tobramycin treatment, one set with no test compound treatment and tobramycin treatment, one set treated with a test compound treatment and no tobramycin treatment, and one set treated with a test compound treatment and tobramycin. After rinsing, one coupon of each set of three was stained with a LIVE/DEAD® BacLight™ Bacterial Viability Kit (Molecular Probes, Eugene Oreg.) and imaged using epifluorescent microscopy. The remaining two coupons were placed in 10 ml of PBS and sonicated for five minutes to remove and disperse biofilm cells. The resulting bacterial suspensions were then serially diluted in PBS and plated on tryptic soy agar plates for enumeration of culturable bacteria. The plates were incubated for 24 hours at 37° C. before colony forming units (CFU) were determined.
The results are averages from experiments performed on three separate days for each test compound. The values reported are as log10 CFU.

[2] = tested on: E. coli clinical strain UTI89; assay: Biofilm formation inhibition, crystal violet, E. coli clinical strain UTI89; assay type: cell-based; settings: Escherichia coli, read-out: inhibited biofilm formation as compared to the controls
Experimental: Biofilm inhibition experiments were conducted using an assay adapted from the reported protocol described in Pratt and Kolter, 1998, Molecular Microbiology, 30: 285-293; Li et al., 2001, J. Bacteriol., 183: 897-908. E. coli clinical strain UTI89 was grown in LB in 96 well plates at room temperature for one or two days without shaking. E. coli laboratory strain JM109 was grown in LB plus 0.2% glucose in 96 well plates at room temperature for one day without shaking. To quantify the biofilm mass, the suspension culture was poured out and the biofilm was washed three times with water. The biofilm was stained with 0.1% crystal violet for 20 minutes. The plates were then washed three times with water. OD reading at 540 nm was measured to quantify the biofilm mass at the bottom of the wells. Then 95% ethanol was added to dissolve the dye at the bottom and on the wall and the OD reading at 540 nm was measured to quantify the total biofilm mass. To study the overall effect of the compounds (3.6 mg/mL in 100% ethanol as stock solution), it was added with the inoculation and a time course of biofilm mass was measured. Appropriate amounts of 100% ethanol were added to each sample to eliminate the effect of solvent. Each condition had 3-4 replicates on each plate and was performed over multiple days.

S. mutans 25175 = assay: Biofilm growth inhibition in polycarbonate tubes; assay type: cell-based; settings: Streptococcus mutans, 40 μg/mL
S. sobrinus 6715 = assay: Biofilm growth inhibition in polycarbonate tubes; assay type: cell-based; settings: Streptococcus sobrinus, 40 μg/mL
[3] = tested on: E. coli clinical strain UTI89; assay: Invasion of E. coli UTI89 into bladder epithelial cells; assay type: cell-based; settings: 40 μg/ml; 60 minutes; separate experiments (n=4-7)
Experimental: The effect of test compounds on bacterial invasion of E. coli clinical strain UTI89 was studied as described in Elsinghorst, et al. 1994, Methods Enzymol, 236:405-420; and Martinez et al., 2000, EMBO J., 19:2803-2812. Epithelial bladder cells were grown in plates. Asiatic acid, corosolic acid, or ursolic acid were added at concentrations of 10 μg/ml, 20 μg/ml, or 40 μg/ml to bacteria and epithelial cells for approximately 5, 15, 30, or 60 minutes with approximately 10^7 CFU of E. coli. Binding was assessed at time zero and invasion was assessed at approximately 5, 15, 30, or 60 minutes from completing the mixture of compound, bacteria, and epithelial cells. As a control ethanol was added to cells to a final concentration of 0.1%. The effect of bacterial viability and bacterial adherence during the infection period was evaluated according to the methods described in Martinez et al., 2000, EMBO J., 19:2803-2812.

[4] = tested on: P. aeruginosa (ATCC 27853); assay: Antibacterial effect (NCCLS MIC); assay type: cell-based; settings: Pseudomonas aeruginosa, ATCC27853, studied at 64 μg/mL, read-out: MIC (minimal inhibitory concentration)
Experimental: (§1) Using the appropriate NCCLS procedures, the antibacterial effect of asiatic acid on Haemophilus influenzae (ATCC 10211), E. coli (ATCC 25922), and P. aeruginosa (ATCC 27853) was studied at 64 μg/mL.

[5] = tested on: Haemophilus influenzae (ATCC 10211); assay: Antibacterial effect (NCCLS MIC); assay type: cell-based; settings: ATCC10211, studied at 64 μg/mL, read-out: MIC (minimal inhibitory concentration)
Experimental: as §1

E. coli (ATCC 25922) = assay: Antibacterial effect (NCCLS MIC); assay type: cell-based; settings: Escherichia coli, ATCC25922, studied at 64 μg/mL, read-out: MIC (minimal inhibitory concentration)
Experimental: as §1

Compound: C[C@H]1[C@H](C)CC[C@]2(C(=O)O)CC[C@]3(C)C(=CC[C@@H]4[C@@]5(C)C[C@@H](O)[C@H](O)[C@@](C)(CO)[C@@H]5CC[C@]43C)[C@H]12 [Asiatic acid, asiatic acid]
- Test Compound, log10 CFU ([1]; test compound 50 μg/ml 24 h): 7.7 log10 CFU
- Tobramycin and Test Compound, log10 CFU ([1]; test compound 50 μg/ml 24 h): 5.3 log10 CFU
- Test Compound, log10 CFU ([1]; test compound 100 μg/ml 24 h): 7.7 log10 CFU
- Tobramycin and Test Compound, log10 CFU ([1]; test compound 100 μg/ml 24 h): 5.5 log10 CFU
- Test Compound, log10 CFU ([1]; test compound 200 μg/ml 24 h): 7.5 log10 CFU
- Tobramycin and Test Compound, log10 CFU ([1]; test compound 200 μg/ml 24 h): 5.2 log10 CFU
- inhibition at 4 µg/mL ([2]; 4 ug/ml): ~10%
- inhibition at 8 µg/mL ([2]; 8 ug/ml): ~15%
- inhibition at 16 µg/mL ([2]; 16 ug/ml): ~50%
- inhibition at 32 µg/mL ([2]; 32 ug/ml): ~90%
- inhibition at 40 µg/mL (S. mutans 25175): > 75%
- inhibition at 40 µg/mL (S. sobrinus 6715): > 75%
- reduced invasion of E. coli into bladder epithelial cells as compared to the controls [3]: 87%
- MIC [4]: > 64 µg/mL
- MIC [5]: > 64 µg/mL
- MIC (E. coli (ATCC 25922)): > 64 µg/mL
